Reference: PMC5564600 (Oncotarget, 2017)

What was measured:
Experiment in all cases: biochemical
Format in all cases: binding
[1] = biological target: T1, panel of 442 kinases (Homo sapiens, UniProt P10721, A829P); details: kinase KIT(A829P); for remaining activity at 1 µM: read-out: % of control at 1 µM
T1 construct: purchased Ambit Biosciences (scanMAXX KINOMEscan)

[2] = biological target: T2, panel of 442 kinases (Homo sapiens, UniProt P42681); details: kinase TXK; for remaining activity at 1 µM: read-out: TXK (% of control at 1 µM)
T2 construct: purchased Ambit Biosciences (scanMAXX KINOMEscan)
T2 sequence (P42681 1-527): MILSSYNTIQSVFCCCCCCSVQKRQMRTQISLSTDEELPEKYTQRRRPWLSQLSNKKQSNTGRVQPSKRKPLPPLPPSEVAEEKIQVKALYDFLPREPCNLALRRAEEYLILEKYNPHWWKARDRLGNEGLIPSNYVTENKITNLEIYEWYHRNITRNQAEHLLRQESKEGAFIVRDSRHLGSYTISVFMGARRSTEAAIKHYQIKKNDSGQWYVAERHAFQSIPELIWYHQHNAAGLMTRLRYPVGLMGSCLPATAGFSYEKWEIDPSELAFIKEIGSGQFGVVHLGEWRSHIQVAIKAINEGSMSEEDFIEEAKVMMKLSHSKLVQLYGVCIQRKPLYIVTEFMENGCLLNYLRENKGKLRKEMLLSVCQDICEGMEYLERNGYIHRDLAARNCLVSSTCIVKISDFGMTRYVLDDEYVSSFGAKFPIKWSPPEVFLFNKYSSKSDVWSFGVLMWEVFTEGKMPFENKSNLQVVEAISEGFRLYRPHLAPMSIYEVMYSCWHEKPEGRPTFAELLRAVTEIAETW

[3] = biological target: T3, panel of 442 kinases (Homo sapiens, UniProt Q9H1R3); details: kinase MYLK2; for remaining activity at 1 µM: read-out: % of control at 1 µM
T3 construct: purchased Ambit Biosciences (scanMAXX KINOMEscan)
T3 sequence (Q9H1R3 whole entry): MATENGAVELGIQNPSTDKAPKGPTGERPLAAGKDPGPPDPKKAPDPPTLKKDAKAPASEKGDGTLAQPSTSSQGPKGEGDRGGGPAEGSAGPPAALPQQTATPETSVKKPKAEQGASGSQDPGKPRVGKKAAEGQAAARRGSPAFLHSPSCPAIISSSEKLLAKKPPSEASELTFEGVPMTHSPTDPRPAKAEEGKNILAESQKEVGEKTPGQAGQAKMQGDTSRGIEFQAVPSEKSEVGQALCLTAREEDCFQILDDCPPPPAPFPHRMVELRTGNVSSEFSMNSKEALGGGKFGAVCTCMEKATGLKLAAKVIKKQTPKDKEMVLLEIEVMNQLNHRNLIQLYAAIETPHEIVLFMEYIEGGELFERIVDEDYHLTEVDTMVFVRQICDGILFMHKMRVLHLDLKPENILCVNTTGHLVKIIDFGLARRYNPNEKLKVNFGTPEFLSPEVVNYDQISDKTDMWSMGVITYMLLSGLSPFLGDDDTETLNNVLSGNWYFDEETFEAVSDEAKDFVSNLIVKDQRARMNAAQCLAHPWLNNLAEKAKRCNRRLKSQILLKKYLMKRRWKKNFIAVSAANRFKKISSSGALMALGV

[4] = biological target: T4, panel of 442 kinases (Homo sapiens, UniProt P49841); details: kinase GSK3B; for remaining activity at 1 µM: read-out: % of control at 1 µM
T4 construct: purchased Ambit Biosciences (scanMAXX KINOMEscan)
T4 sequence (P49841 whole entry): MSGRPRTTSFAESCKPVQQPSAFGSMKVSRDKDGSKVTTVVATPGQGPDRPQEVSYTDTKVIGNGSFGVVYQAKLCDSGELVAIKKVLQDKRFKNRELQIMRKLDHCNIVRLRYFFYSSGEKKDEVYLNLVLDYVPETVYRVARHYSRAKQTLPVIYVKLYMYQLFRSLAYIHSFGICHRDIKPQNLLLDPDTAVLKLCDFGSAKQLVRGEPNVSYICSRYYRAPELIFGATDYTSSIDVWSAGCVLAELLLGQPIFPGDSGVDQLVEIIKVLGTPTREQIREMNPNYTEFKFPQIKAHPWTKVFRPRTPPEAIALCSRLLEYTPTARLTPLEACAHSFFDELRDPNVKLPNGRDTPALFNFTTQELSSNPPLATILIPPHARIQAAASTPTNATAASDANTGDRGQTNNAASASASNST

[5] = biological target: T5, panel of 442 kinases (Homo sapiens, UniProt P35590); details: kinase TIE1; for remaining activity at 1 µM: read-out: TIE1 (% of control at 1 µM)
T5 construct: purchased Ambit Biosciences (scanMAXX KINOMEscan)
T5 sequence (P35590 22-1138): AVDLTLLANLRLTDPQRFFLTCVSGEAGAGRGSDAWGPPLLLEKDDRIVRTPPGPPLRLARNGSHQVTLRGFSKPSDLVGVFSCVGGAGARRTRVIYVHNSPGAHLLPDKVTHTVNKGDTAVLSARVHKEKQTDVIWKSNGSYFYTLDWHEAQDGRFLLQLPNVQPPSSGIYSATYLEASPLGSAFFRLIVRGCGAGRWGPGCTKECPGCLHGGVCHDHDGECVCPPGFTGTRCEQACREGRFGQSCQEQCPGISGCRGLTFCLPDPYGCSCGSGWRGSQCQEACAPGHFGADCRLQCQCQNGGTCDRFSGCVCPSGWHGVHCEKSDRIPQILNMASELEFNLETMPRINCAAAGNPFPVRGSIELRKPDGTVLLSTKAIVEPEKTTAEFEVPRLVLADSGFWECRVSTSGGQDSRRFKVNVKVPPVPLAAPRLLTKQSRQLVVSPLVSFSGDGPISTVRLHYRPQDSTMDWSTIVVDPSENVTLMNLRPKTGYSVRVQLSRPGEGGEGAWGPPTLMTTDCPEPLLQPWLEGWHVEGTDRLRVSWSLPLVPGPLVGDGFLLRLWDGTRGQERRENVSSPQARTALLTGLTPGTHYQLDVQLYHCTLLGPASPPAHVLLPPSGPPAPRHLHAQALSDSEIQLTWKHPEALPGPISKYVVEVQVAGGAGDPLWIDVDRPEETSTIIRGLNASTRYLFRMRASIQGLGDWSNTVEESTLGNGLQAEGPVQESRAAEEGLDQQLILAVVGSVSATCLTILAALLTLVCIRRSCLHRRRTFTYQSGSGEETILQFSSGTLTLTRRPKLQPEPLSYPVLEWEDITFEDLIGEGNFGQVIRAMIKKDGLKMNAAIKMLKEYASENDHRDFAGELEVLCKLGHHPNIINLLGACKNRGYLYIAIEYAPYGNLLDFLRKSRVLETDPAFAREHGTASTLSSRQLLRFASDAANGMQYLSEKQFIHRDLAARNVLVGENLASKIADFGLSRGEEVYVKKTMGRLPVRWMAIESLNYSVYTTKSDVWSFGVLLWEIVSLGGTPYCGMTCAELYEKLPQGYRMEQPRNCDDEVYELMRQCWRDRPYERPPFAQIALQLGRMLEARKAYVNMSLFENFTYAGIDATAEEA

[6] = biological target: T6, panel of 442 kinases (Homo sapiens, UniProt Q9P0L2); details: kinase MARK1; for remaining activity at 1 µM: read-out: % of control at 1 µM
T6 construct: purchased Ambit Biosciences (scanMAXX KINOMEscan)
T6 sequence (Q9P0L2 whole entry): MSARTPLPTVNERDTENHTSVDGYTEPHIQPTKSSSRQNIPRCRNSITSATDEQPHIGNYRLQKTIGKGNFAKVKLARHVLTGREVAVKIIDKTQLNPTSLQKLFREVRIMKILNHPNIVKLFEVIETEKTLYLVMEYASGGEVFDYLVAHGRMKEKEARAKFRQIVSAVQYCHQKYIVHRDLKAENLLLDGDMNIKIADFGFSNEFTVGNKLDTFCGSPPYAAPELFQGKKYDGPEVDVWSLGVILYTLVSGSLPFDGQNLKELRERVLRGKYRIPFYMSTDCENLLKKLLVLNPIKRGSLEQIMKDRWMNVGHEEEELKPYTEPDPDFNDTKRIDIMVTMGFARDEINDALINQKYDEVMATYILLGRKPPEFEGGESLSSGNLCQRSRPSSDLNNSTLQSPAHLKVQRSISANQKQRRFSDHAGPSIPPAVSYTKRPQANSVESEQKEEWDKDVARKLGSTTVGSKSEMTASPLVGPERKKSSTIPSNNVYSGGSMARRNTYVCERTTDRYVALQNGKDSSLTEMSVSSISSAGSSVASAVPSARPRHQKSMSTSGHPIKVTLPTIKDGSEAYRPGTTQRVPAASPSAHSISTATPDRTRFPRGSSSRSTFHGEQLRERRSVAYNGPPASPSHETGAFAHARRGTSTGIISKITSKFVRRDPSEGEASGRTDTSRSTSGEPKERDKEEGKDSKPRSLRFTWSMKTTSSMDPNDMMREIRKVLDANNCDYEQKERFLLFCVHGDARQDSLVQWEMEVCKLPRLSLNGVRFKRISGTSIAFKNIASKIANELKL

[7] = biological target: T7, panel of 442 kinases (Homo sapiens, UniProt P09619); details: kinase PDGFRB; for remaining activity at 1 µM: read-out: % of control at 1 µM
T7 construct: purchased Ambit Biosciences (scanMAXX KINOMEscan)
T7 sequence (P09619 33-1106): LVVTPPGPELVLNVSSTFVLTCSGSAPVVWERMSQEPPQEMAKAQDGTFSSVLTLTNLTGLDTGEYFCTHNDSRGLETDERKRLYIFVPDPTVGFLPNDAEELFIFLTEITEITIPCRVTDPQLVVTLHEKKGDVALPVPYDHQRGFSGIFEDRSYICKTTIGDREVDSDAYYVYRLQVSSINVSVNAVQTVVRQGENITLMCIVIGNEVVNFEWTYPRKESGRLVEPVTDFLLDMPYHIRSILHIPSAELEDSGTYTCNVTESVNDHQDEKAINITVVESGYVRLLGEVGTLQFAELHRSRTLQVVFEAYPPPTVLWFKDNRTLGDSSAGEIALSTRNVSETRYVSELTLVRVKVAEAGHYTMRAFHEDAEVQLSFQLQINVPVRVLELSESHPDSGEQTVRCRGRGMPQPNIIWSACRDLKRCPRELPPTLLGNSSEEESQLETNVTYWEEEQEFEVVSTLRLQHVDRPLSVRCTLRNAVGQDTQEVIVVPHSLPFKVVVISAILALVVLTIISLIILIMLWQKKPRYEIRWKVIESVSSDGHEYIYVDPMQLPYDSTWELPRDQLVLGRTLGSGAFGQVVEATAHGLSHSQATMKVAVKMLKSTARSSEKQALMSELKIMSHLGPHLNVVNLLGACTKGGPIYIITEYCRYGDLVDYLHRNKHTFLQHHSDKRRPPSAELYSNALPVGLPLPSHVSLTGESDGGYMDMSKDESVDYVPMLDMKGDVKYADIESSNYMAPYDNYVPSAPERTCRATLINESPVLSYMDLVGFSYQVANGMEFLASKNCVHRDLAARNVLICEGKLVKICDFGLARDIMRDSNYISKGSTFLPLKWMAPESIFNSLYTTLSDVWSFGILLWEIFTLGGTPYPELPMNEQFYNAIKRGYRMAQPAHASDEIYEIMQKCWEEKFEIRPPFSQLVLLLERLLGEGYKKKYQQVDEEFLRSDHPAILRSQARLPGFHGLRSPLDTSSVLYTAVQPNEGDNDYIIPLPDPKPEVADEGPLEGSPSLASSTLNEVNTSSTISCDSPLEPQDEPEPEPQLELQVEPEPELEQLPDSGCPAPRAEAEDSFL

[8] = biological target: T8, panel of 442 kinases (Homo sapiens, UniProt O60285); details: ARK5; for remaining activity at 1 µM: read-out: % of control at 1 µM
T8 construct: purchased Ambit Biosciences (scanMAXX KINOMEscan)
T8 sequence (O60285 1-661): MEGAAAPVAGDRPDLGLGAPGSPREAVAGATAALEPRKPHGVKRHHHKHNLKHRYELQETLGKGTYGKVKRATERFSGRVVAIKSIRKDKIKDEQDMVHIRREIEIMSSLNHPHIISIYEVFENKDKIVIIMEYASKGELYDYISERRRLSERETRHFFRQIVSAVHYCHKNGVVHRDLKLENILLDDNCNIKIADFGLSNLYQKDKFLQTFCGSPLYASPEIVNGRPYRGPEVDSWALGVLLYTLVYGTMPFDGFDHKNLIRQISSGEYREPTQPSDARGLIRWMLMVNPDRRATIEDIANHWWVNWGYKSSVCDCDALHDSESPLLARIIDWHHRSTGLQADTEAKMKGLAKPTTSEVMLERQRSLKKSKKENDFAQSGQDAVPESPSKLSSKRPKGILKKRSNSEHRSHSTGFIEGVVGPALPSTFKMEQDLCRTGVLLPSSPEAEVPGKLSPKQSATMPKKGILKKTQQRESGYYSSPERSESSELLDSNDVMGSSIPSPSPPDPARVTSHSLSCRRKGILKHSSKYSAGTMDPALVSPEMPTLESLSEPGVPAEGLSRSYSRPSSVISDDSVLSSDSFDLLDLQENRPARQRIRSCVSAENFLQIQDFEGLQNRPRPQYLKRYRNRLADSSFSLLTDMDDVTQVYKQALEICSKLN

[9] = biological target: T9, panel of 442 kinases (Homo sapiens, UniProt P36888, R834Q); details: kinase FLT3(R834Q); for remaining activity at 1 µM: read-out: % of control at 1 µM
T9 construct: purchased Ambit Biosciences (scanMAXX KINOMEscan)
T9 sequence (P36888 27-993 R834Q): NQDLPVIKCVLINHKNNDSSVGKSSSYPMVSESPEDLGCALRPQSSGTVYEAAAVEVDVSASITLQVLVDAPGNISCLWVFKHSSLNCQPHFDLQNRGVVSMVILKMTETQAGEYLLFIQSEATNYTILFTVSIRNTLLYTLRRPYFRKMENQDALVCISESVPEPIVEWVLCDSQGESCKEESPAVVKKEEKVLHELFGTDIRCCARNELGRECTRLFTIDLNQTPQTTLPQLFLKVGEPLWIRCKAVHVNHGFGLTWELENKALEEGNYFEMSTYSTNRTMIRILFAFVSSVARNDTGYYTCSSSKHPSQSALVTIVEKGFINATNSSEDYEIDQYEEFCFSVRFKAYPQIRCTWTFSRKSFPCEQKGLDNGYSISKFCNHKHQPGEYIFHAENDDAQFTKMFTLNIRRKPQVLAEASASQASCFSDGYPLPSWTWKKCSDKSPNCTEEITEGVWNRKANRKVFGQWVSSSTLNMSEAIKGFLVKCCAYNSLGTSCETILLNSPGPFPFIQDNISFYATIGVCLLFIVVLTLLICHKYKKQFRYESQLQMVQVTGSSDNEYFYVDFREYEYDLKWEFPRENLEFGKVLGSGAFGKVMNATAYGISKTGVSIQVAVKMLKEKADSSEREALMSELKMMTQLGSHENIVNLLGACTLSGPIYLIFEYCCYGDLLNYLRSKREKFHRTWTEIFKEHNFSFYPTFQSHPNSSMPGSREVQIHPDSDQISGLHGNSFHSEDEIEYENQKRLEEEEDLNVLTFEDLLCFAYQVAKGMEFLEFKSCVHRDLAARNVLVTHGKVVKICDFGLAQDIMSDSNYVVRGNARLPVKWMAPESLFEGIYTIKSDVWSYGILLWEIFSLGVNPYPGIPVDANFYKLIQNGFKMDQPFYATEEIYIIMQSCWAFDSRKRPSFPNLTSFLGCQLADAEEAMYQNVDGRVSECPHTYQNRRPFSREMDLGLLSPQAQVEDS

[10] = 10 µM, read-out: % of control at 10 µM

T1 sequence (P10721 26-976 A829P): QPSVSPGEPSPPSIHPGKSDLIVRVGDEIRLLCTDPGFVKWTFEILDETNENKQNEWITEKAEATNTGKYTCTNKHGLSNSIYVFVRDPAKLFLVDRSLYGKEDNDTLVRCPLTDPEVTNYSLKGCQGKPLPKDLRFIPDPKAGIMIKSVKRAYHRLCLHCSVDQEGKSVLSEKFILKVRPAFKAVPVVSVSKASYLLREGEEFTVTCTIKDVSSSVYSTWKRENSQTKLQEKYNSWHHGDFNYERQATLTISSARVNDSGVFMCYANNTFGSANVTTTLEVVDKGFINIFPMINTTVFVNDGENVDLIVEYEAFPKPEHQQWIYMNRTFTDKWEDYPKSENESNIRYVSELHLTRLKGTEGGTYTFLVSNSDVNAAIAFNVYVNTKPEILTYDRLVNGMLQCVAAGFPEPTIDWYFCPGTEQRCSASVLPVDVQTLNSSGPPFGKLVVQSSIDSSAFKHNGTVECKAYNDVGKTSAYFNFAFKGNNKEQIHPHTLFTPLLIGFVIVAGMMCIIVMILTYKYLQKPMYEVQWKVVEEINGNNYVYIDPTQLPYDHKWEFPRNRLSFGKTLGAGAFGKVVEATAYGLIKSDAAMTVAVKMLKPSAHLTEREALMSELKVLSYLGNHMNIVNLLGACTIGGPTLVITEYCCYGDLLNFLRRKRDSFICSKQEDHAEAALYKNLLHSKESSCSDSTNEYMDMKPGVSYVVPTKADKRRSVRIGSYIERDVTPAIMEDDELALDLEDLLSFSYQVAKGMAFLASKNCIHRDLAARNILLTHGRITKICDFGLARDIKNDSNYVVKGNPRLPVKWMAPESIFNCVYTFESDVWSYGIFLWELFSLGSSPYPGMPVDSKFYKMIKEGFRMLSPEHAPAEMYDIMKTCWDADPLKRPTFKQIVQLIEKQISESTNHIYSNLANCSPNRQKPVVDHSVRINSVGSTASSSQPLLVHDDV

| SMILES | remaining activity at 1 µM [1] | remaining activity at 10 µM [1, 10] | remaining activity at 1 µM [2] | remaining activity at 10 µM ([2]; 10 µM, read-out: TXK (% of control at 10 µM)) | remaining activity at 1 µM [3] | remaining activity at 10 µM [3, 10] | remaining activity at 1 µM [4] | remaining activity at 10 µM [4, 10] | remaining activity at 1 µM [5] | remaining activity at 10 µM ([5]; 10 µM, read-out: TIE1 (% of control at 10 µM)) | remaining activity at 1 µM [6] | remaining activity at 10 µM [6, 10] | remaining activity at 1 µM [7] | remaining activity at 10 µM [7, 10] | remaining activity at 1 µM [8] | remaining activity at 10 µM [8, 10] | remaining activity at 1 µM [9] | remaining activity at 10 µM [9, 10] |
| --- | --- | --- | --- | --- | --- | --- | --- | --- | --- | --- | --- | --- | --- | --- | --- | --- | --- | --- |
| Nc1cc(C(F)(F)F)c(-c2cc(N3CCOCC3)nc(N3CCOCC3)n2)cn1 [Buparlisib] | 100% | 98% | 98% | 89% | 100% | 100% | 86% | 100% | 96% | 100% | 100% | 100% | 100% | 97% | 100% | 100% | 100% | 100% |
| Cn1c(=O)n(-c2ccc(C(C)(C)C#N)cc2)c2c3cc(-c4cnc5ccccc5c4)ccc3ncc21 [Dactolisib, 2-methyl-2-[4-(3-methyl-2-oxo-8-quinolin-3-yl-2,3-dihydroimidazo[4,5-c]quinolin-1-yl)-phenyl] propionitrile] | 61% |  | 100% |  | 93% |  | 100% |  | 100% |  | 82% |  |  |  | 32% |  |  |  |
| COc1ncc(-c2ccc3nccc(-c4ccnnc4)c3c2)cc1NS(=O)(=O)c1ccc(F)cc1F [Omipalisib] | 100% |  | 82% |  | 100% |  | 89% |  | 100% |  | 100% |  | 96% |  | 100% |  | 100% |  |
| FC(F)c1nc2ccccc2n1-c1nc(N2CCOCC2)nc(N2CCOCC2)n1 [ZSTK474, 2-(difluoromethyl)-1-[4,6-di(4-morpholinyl)-1,3,5-triazin-2-yl]-1H-benzimidazole] | 90% |  | 83% |  | 95% |  | 91% |  | 88% |  | 98% |  | 100% |  | 100% |  | 100% |  |
